This passage reports Kd results from PubChem BioAssay AID1552 (Sanford-Burnham Center for Chemical Genomics, 2009).

Calls of active or inactive are those of the source. No rule for the calls is given here.

The assay concerns the target Ubiquitin-conjugating enzyme E2 N (Homo sapiens) (UniProt P61088). Nature of the assay: UBE2N binders by NMR, biophysical, purified protein (AID 1552). As to conditions: NMR binding to purified UBE2N.

Ubiquitin-conjugating enzyme E2 N (Homo sapiens), sequence (P61088 whole entry, looked up): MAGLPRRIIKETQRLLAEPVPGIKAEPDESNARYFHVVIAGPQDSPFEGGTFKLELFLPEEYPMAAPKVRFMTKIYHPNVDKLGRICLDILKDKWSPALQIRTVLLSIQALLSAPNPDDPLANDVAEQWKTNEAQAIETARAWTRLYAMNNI

Broadly, the Kd is the free concentration of one partner at which half of the binding sites on the other are occupied at equilibrium, for simple one-to-one binding. Turning to `O=C(O)CN(CCCc1ccccc1)CC(=O)O`, the Kd is > 4 mM (inactive).
In the case of `O=C(Nc1ccc2c(c1)OCO2)c1cnn2cccnc12`, the Kd was > 4 mM (inactive).
For `Cc1noc(C)c1C(=O)NC1=NCCS1` the value was > 4 mM (inactive); for `O=C(Nc1cccc(O)c1)c1ccccc1`, > 4 mM (inactive).
For `Nc1nc(-c2cccnc2)nn1C(=O)Cc1ccccc1` the value was > 4 mM (inactive); for `CC(=O)Oc1ccc(O)cc1`, > 4 mM (inactive).
Turning to `NCc1oc(-c2ccccc2)cc1C(=O)O`, the Kd is > 4 mM (inactive).
In the case of `OCC(O)Cc1ccc2c(c1)OCO2` (stereo not given), the Kd was > 4 mM (inactive).
For `O=S1(=O)CCC(NCc2ccccc2)C1` (stereo not given) the value was > 4 mM (inactive); for `CCOC(=O)c1c(C)nc2sccn12`, > 4 mM (inactive).
For `CN(C)S(=O)(=O)N1CCc2ccccc21` the value was > 4 mM (inactive); for `Cc1[nH]ccc2c1[nH]c1cc(=O)ccc12`, > 4 mM (inactive); for `CC(CC(=O)NN)C1(O)CCCCC1` (stereo not given), > 4 mM (inactive).
To `CNC(=O)c1ccc([N+](=O)[O-])cc1Cl` belongs > 4 mM (inactive); to `Cc1cc(C)nc(/N=C(\N)N2CCc3ccccc32)n1`, > 4 mM (inactive); to `NS(=O)(=O)c1ccc(N=Cc2ccc[nH]2)cc1`, > 4 mM (inactive).
As for `COc1ccc2c(c1)O[C@@H]1COc3cc(OC)c(OC)cc3[C@@H]1C2=O`, the Kd was > 4 mM (inactive).
Take `O=S1(=O)CCC(NC(=S)Nc2ccc(O)cc2)C1` (stereo not given): the Kd was > 4 mM (inactive).
To `CC(O)C(=O)N/N=C/c1ccccc1` (stereo not given) belongs > 4 mM (inactive); to `Nc1[nH]c(=S)[nH]c(=O)c1-c1ccccc1`, > 4 mM (inactive).
To `O=C1CSC(=Nc2cccc(C(F)(F)F)c2)N1` belongs > 4 mM (inactive); to `O=C(OC[C@H]1O[C@H](OC(=O)c2cc(O)c(O)c(OC(=O)c3cc(O)c(O)c(O)c3)c2)[C@H](OC(=O)c2cc(O)c(O)c(OC(=O)c3cc(O)c(O)c(O)c3)c2)[C@@H](OC(=O)c2cc(O)c(O)c(OC(=O)c3cc(O)c(O)c(O)c3)c2)[C@@H]1OC(=O)c1cc(O)c(O)c(OC(=O)c2cc(O)c(O)c(O)c2)c1)c1cc(O)c(O)c(OC(=O)c2cc(O)c(O)c(O)c2)c1`, > 4 mM (inactive).
To `O=C(Nc1ccc(-c2nnco2)cc1)c1ccccc1` belongs > 4 mM (inactive); to `COc1ccc(C2CC(=O)NN2)cc1OC1CCCC1` (stereo not given), > 4 mM (inactive); to `CC(CCC(=O)O)[C@H]1CCC2C3CC[C@@H]4CCCC[C@]4(C)C3CC[C@@]21C` (stereo not given in full), > 4 mM (inactive).
On to `O=c1[nH]cnc2c1nnn2Cc1ccccc1`, for which the Kd was > 4 mM (inactive).
As for `O=C(O)C1Cc2ccccc2O1` (stereo not given), the Kd is > 4 mM (inactive).
For `COc1cccc(NC(=O)c2ncn[nH]2)c1` the value was > 4 mM (inactive); for `Cc1noc(C)c1C(=O)Nc1ccccc1-c1ccccc1`, > 4 mM (inactive).
For `OC1CCN(c2nccc(C(F)(F)F)n2)CC1` the value was > 4 mM (inactive); for `CN1C(=O)C2C=CC1C1C(=O)N(c3ccccc3)C(=O)C21` (stereo not given), > 4 mM (inactive).
To `O=C(O)CN1C(=O)c2ccc(C(=O)O)cc2C1=O` belongs > 4 mM (inactive).
For the molecule `c1ccc2c(NC3=NCCS3)cccc2c1`, the Kd was > 4 mM (inactive).
In the case of `NCc1c[nH]c2ccccc12`, the Kd is > 4 mM (inactive).
For the molecule `COc1cc(C)c(S(=O)(=O)N2CCN(C)CC2)cc1C`, the Kd is > 4 mM (inactive).
For `CCn1c(=O)cc(N2CCC3(CC2)OCCO3)[nH]c1=O`, the Kd is > 4 mM (inactive).
Take `CN=C1SC(CC(=O)Nc2ccc(O)cc2)C(=O)N1C` (stereo not given): the Kd was > 4 mM (inactive).
For `NC(=O)c1ccc(NC(=O)C2CC2)cc1` the value was > 4 mM (inactive); for `CC(C)(C)CC(=O)NNC(=O)c1cnccn1`, > 4 mM (inactive).
To `Cc1cc(C)n(C2CCS(=O)(=O)C2)n1` (stereo not given) belongs > 4 mM (inactive); to `Cc1cc(S(=O)(=O)N2CCOCC2)ccc1F`, > 4 mM (inactive).
With `CN(C)c1ccc(C2CC(=O)CC(=O)C2)cc1`, the Kd is > 4 mM (inactive).
For `COC(=O)C[C@H]1C(C)(C)C(=O)[C@@H]2CC3C4=CC(=O)O[C@@H](c5ccoc5)[C@]4(C)CCC3C1(C)C2=O` (stereo not given in full) the value was > 4 mM (inactive).
Consider `O=C1C2CC=CCC2C(=O)N1c1ccccc1O` (stereo not given), for which the Kd was > 4 mM (inactive).
To `O=C1Cc2ccccc2N1c1ccccc1` belongs > 4 mM (inactive).
For `CN(C)c1n[nH]c(=O)[nH]c1=O` the value was > 4 mM (inactive).
For `CC(C)=CCCC1(C)C=Cc2c(O)c3c(c(CC=C(C)C)c2O1)OC12C(=CC4CC1C(C)(C)OC2(C/C=C(/C)C(=O)O)C4O)C3=O` (stereo not given) the value was > 4 mM (inactive).
For the molecule `COC(=O)c1c(C)c2c(c(C)c1O)OC(=O)c1c(C)c(Cl)c(O)c(Cl)c1O2`, the Kd was > 4 mM (inactive).
For the molecule `COc1ccc2c(CC(=O)O)coc2c1`, the Kd was > 4 mM (inactive).
For `C=C1[C@H]2CC[C@@]3(C)[C@H](c4ccoc4)OC(=O)C[C@]13O[C@H]1C[C@H](O)C(C)(C)[C@H](CC(=O)OC)[C@]12C` the value was > 4 mM (inactive).
For `O=C(O)c1ccccc1N1CCOCC1` the value was > 4 mM (inactive); for `Cc1cc(C)c(C#N)c(N2CCCC2)n1`, > 4 mM (inactive).
For `CCc1cc2c(SCC(=O)O)ncnc2s1` the value was > 4 mM (inactive); for `CCOc1cc(C)c(Cl)cc1S(=O)(=O)N(C)C`, > 4 mM (inactive); for `O=C(Nc1cccnc1)c1cnn2cccnc12`, > 4 mM (inactive).
On to `Cc1cc(C)n(CCCC(=O)O)n1`, for which the Kd is > 4 mM (inactive).
For `Cn1nccc1N` the value was > 4 mM (inactive); for `O=C(Nc1cccnc1)c1c(F)c(F)c(F)c(F)c1F`, > 4 mM (inactive).
For `O=C(/C=C/c1ccc(O)c(O)c1)O[C@@H]1C[C@](O)(C(=O)O)C[C@@H](O)[C@H]1O` the value was > 4 mM (inactive); for `Nc1nc(SCc2ccc3c(c2)OCO3)n[nH]1`, > 4 mM (inactive); for `O=C(Oc1ccc2c(c1)OCC2=O)c1ccccc1`, > 4 mM (inactive).
To `Cc1nc2ccccc2c(=O)n1NC(=O)Nc1ccccc1` belongs > 4 mM (inactive).
As to `S=C(Nc1ccc2nccnc2c1)N1CCOCC1`, the Kd was > 4 mM (inactive).
As to `O=C(NN1C(=O)CSC1=S)c1ccccc1`, the Kd was > 4 mM (inactive).
For `c1ccc2c(c1)nnn2C1CCNCC1` the value was > 4 mM (inactive); for `CC(=O)Oc1ccc(-c2cc(=O)c3c(OC(C)=O)cc(OC(C)=O)cc3o2)cc1`, > 4 mM (inactive); for `COc1ccc(C)cc1S(=O)(=O)Nc1ccccc1C`, > 4 mM (inactive).
To `Cn1nc(C(=O)N2CCCC2)c2ccccc2c1=O` belongs > 4 mM (inactive); to `CC(=O)Nc1ccc(S(=O)(=O)NC2=NCCS2)cc1`, > 4 mM (inactive); to `Nc1ncccc1OCc1ccccc1`, > 4 mM (inactive).
